Data as given in ChEMBL document CHEMBL1201862, “PubChem BioAssay data set” (2004).
Activity calls are given as the source filed them.

Key:
[1] = target: T1, G-protein coupled receptor 35 (Homo sapiens, UniProt Q9HC97); test: SAR Analysis for the identification of Selective Antagonists of ERK1/2 Activity in GPR35-Overexpressing U2OS Cells. [Related pubchem assays: 2079, 2058 ]; format: functional, cell-based
[2] = target: G-protein coupled receptor 55 (Homo sapiens, UniProt Q9Y2T6); test: blockers of GPR55 signalling, imaged – imaging, image-based, counter-screen for GPR35 antagonist project, SAR follow-up (AID 2397); format: functional
G-protein coupled receptor 55, sequence (Q9Y2T6 whole entry): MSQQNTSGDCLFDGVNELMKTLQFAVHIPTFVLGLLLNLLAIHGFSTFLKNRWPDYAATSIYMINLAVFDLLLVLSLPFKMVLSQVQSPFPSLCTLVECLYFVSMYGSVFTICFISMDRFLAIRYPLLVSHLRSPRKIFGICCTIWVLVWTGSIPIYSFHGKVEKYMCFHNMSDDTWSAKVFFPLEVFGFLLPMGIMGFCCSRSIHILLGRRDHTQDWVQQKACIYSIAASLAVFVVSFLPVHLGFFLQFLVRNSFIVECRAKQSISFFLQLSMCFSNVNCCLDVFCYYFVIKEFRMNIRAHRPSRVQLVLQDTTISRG

[3] = target: T1, G-protein coupled receptor 35; test: inhibition of zaprinast-stimulated GPR35 beta-arrestin translocation – imaging, U2OS, beta-arrestin-GFP, zaprinast agonist, primary screen (AID 2058); format: functional;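 note: antagonist potency meaning inhibition of agonist-induced arrestin redistribution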
[4] = target: T2, Intestinal-type alkaline phosphatase (Homo sapiens, UniProt P09923); test: human intestinal alkaline phosphatase activators, dose response, biochemical, luminescence, uHTS hits (AID 463120); format: functional
T2 sequence (P09923 whole entry): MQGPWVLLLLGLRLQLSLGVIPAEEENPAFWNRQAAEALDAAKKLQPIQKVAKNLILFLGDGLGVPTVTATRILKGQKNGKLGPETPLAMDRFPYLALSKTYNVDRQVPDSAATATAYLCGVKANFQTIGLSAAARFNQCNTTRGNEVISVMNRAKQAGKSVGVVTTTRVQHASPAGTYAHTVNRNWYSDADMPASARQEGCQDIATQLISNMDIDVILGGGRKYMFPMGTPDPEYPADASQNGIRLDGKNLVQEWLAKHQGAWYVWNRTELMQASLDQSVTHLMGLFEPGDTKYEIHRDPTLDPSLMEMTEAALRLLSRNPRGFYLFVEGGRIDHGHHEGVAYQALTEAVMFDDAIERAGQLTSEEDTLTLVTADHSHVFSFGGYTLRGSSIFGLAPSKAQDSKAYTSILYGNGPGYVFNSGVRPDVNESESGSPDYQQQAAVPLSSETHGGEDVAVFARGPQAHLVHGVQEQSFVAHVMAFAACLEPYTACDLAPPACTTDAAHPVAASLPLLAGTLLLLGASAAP

[5] = target: Intestinal-type alkaline phosphatase (Mus musculus, UniProt P24822); test: PubChem AID 488874; format: functional
Intestinal-type alkaline phosphatase (Mus musculus, UniProt P24822), sequence (P24822 whole entry): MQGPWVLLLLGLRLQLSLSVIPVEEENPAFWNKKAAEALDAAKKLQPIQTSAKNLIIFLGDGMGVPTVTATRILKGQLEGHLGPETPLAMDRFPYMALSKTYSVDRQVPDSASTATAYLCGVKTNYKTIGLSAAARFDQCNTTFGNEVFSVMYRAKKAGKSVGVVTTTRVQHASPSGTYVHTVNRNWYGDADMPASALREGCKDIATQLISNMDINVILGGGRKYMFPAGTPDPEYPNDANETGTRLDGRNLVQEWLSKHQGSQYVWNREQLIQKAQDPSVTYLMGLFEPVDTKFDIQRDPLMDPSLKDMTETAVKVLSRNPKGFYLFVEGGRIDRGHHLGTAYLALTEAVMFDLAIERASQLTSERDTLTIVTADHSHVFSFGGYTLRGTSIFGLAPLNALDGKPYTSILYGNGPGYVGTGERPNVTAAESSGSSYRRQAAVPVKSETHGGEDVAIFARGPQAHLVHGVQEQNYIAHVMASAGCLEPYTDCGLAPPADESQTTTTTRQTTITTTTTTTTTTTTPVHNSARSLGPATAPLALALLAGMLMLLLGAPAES

[6] = target: T2, Intestinal-type alkaline phosphatase; test: activation of human intestinal alkaline phosphatase – biochemical, luminescent, uHTS hits, set 2, dose response (AID 488817); format: functional;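 note: potency of activators that raise enzyme activity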
[7] = target: T3, Alkaline phosphatase, tissue-nonspecific isozyme (Homo sapiens, UniProt P05186); test: activation of tissue-nonspecific alkaline phosphatase – biochemical, TNAP isozyme, human IAP uHTS hits, selectivity assay for human IAP activator project, dose response (AID 488886); format: functional;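 note: potency of compounds raising TNAP activity as a selectivity check on IAP activators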
T3 sequence (P05186 whole entry): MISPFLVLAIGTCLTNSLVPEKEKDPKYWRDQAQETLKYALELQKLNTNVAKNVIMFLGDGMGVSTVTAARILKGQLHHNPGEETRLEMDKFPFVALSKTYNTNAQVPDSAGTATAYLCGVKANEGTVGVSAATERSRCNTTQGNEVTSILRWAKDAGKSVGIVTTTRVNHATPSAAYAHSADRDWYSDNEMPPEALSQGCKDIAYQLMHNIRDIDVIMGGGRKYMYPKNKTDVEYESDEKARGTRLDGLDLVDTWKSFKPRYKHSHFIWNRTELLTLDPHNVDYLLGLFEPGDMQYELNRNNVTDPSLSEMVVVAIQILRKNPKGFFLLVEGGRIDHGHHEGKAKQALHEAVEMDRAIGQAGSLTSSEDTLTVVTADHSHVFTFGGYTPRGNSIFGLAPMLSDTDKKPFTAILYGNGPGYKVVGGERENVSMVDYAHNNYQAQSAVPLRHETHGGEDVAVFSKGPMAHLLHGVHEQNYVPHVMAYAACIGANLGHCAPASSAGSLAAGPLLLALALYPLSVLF

Caspase-6 = target: T4, Caspase-6 (Homo sapiens, UniProt P55212); test: inhibition of CASP6 peptide cleavage – biochemical, VEID-R110 fluorescence, cherry-pick, dose response (AID 720632)
T4 sequence (P55212 whole entry): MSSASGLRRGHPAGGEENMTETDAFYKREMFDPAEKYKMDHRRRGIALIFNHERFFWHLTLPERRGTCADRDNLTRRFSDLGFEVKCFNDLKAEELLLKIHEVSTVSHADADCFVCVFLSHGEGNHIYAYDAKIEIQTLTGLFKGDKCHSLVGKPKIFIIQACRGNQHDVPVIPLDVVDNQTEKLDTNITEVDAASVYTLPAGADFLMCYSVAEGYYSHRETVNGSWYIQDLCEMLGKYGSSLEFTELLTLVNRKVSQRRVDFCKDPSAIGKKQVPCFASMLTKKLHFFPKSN

[8] = luciferase reporter signal suppression in cells – H4 neuroglioma cells, luminescence, dose response (AID 1990); format: functional, cell-based
[9] = alpha-synuclein stem-loop luciferase translation blockers – H4 neuroglioma cells, luminescence, confirmation (AID 1988); format: functional, cell-based
[10] = Luminescence Cell-Based Dose Response HTS to Identify Inhibitors of 5'UTR Stem-Loop Driven Prion Protein mRNA Translation in H4 Neuroglioblastoma Cells. [Related pubchem assays: 1827 (Project Summary), 1813 (Primary HTS)]; format: functional
A-375 [11] = test: MITF: Counter assay: A375 proliferation Measured in Cell-Based System Using Plate Reader - 2084-03_Inhibitor_Dose_DryPowder_Activity. [Related pubchem assays (depositor defined):AID488944]; format: functional; conditions: Homo sapiens
[12] = target: T5, Microphthalmia-associated transcription factor (Homo sapiens, UniProt O75030); test: reducers of TRPM1 reporter luminescence, concentration series – cell-based, SK-MEL-5, cherry-picked, set 3, MITF inhibitor project, dose response (AID 493073); format: functional;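 note: SK-MEL-5 melanoma cells with luciferase driven by the MITF target TRPM1 promoter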
T5 sequence (O75030 whole entry): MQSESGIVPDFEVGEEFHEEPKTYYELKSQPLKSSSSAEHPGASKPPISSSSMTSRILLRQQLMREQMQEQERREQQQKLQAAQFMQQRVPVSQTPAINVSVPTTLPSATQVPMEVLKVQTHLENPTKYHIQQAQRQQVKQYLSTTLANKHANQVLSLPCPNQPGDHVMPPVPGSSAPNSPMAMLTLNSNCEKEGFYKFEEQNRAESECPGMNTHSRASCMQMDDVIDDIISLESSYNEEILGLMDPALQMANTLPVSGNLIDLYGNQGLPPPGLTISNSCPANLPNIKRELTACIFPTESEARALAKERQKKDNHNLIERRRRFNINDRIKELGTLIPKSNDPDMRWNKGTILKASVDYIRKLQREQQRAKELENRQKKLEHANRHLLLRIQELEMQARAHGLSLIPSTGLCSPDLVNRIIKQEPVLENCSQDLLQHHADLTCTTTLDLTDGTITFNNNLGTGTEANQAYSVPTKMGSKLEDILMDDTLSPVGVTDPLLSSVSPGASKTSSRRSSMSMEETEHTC

A-375 [13] = test: proliferation inhibition in MITF-low A375 cells – cell-based, cherry-pick samples, set 2, counter-screen for MITF modulator project, dose response (AID 540335); format: functional; conditions: Homo sapiens
[14] = target: T6, Kappa-type opioid receptor (Homo sapiens, UniProt P41145); format: functional
T6 sequence (P41145 whole entry): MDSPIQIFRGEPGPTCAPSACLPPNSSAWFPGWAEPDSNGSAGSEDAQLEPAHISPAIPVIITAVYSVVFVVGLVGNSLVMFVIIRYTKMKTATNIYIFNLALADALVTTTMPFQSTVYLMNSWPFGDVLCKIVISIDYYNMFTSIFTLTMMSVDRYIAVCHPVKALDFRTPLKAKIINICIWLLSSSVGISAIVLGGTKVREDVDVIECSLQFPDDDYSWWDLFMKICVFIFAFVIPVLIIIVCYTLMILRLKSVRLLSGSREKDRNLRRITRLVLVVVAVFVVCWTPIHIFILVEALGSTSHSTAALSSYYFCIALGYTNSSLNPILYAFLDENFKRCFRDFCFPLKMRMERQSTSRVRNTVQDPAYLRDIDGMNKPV

[15] = target: T7, Delta-type opioid receptor (Homo sapiens, UniProt P41143); test: HTS Image-Based Screen for Antagonists of the DOR Receptor. [Related pubchem assays (depositor defined):AID1777, AID1785, AID1786, AID2133]; format: functional
T7 sequence (P41143 whole entry): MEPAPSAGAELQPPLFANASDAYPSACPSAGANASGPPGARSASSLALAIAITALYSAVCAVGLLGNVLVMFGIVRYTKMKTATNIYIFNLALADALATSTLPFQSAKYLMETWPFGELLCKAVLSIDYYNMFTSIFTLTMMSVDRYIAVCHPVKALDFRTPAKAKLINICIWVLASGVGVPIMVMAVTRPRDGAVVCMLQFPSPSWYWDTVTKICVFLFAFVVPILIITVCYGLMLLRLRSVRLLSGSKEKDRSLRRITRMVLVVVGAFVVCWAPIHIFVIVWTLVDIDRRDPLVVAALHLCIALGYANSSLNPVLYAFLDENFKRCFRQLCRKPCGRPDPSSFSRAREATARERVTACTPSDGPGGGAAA

[16] = target: T7, Delta-type opioid receptor; test: HTS Image-Based Screen for Agonists of the DOR Receptor. [Related pubchem assays (depositor defined):AID1777, AID1786, AID2133]; format: functional
Mu-type opioid receptor = Mu-type opioid receptor (Homo sapiens, UniProt P35372); test: HTS Image-Based Screen for Agonists of the MOR Receptor. [Related pubchem assays (depositor defined):AID1777, AID1785, AID1786, AID2133]; format: functional;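 note: imaging of beta-arrestin GFP recruitment into spots after receptor activation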
Mu-type opioid receptor, sequence (P35372 whole entry): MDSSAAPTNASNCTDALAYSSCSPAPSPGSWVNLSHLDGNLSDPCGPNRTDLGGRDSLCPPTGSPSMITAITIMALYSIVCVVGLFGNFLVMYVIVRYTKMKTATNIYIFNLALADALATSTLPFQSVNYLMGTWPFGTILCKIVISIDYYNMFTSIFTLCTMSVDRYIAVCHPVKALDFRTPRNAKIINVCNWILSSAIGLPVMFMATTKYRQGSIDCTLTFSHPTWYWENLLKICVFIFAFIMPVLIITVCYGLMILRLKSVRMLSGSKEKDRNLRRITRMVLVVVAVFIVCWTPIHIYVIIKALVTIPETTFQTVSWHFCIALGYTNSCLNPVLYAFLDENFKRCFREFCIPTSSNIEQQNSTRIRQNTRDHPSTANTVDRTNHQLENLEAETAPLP

[17] = target: T8, Latent membrane protein 1 (Human herpesvirus 4 (strain B95-8), UniProt P03230); test: LMP1 TES1 pathway selectivity over dsRED control – imaging, HEK293T, dual-color eGFP/dsRED, cherry-picks, selectivity assay for LMP1 NF-kB inhibitor project, dose response (AID 588398); format: functional, cell-based
T8 sequence (P03230 whole entry): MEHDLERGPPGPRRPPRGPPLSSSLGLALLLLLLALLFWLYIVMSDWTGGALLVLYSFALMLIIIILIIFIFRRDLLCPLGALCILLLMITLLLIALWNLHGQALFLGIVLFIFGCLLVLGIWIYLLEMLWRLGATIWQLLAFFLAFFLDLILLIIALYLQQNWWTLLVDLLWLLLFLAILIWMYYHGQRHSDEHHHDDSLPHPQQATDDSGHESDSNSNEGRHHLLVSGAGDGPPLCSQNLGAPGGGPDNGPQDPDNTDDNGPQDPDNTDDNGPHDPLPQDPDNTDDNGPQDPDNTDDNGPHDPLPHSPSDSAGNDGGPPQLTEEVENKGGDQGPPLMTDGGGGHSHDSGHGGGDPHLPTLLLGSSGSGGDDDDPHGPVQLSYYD

Beta-galactosidase = Beta-galactosidase (Escherichia coli, UniProt Q8VNN2); format: functional
Beta-galactosidase, sequence (Q8VNN2 whole entry): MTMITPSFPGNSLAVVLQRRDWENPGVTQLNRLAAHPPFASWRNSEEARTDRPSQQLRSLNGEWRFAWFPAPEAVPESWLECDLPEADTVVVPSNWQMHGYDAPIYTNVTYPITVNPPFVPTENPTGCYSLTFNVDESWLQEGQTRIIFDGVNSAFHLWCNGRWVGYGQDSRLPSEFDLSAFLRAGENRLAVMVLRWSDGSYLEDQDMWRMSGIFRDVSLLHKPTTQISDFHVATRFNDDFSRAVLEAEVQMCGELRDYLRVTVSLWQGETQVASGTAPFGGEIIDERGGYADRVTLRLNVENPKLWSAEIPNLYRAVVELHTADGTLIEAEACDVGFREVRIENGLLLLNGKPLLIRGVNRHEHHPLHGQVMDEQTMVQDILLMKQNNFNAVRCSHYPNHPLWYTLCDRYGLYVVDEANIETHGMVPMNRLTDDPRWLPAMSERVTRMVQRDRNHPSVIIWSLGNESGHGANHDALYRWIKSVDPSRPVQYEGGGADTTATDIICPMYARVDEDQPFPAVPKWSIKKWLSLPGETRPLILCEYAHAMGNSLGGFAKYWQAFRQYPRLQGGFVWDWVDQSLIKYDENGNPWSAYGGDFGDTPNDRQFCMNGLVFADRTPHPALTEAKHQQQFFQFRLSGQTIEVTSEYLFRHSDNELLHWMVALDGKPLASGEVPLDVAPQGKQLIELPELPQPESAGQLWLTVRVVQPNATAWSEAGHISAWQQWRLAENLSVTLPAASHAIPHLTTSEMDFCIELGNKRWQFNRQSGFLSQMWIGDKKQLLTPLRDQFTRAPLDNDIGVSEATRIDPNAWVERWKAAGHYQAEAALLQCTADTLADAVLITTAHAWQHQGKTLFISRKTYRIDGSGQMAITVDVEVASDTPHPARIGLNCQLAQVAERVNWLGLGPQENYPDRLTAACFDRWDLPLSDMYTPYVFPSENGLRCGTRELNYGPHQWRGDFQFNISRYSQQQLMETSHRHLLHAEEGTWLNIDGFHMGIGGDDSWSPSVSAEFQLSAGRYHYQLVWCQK

[18] = target: T6, Kappa-type opioid receptor; format: functional; remark: listed apart in the source

T1 sequence (Q9HC97 whole entry): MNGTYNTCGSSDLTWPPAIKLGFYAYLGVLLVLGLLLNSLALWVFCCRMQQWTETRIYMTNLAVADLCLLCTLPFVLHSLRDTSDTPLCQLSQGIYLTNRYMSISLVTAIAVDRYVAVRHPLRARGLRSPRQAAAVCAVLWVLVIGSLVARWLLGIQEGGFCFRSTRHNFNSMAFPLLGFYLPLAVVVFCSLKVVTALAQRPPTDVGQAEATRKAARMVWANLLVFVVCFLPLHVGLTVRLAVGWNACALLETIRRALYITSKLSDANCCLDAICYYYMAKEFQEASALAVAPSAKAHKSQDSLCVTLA

Compound: CC(C)c1ccc(NC(=O)CSc2nc3ccsc3c(=O)n2Cc2ccc(C(=O)O)cc2)cc1
- IC50 [1]: 5.68 µM (active)
- IC50 [2]: 11.7 µM (inactive)
- IC50 [3]: 0.561 µM (active)

Compound: Cc1cccc(OCC(=O)NNC(=O)c2ccc3[nH]cnc3c2)c1
- EC50 [4]: 9.75 µM (active)
- IC50 [5]: > 100 µM (inactive)
- EC50 [6]: 13.5 µM (active)
- EC50 [7]: 17.7 µM (active)
- AC50 (Caspase-6): 44 µM (active)

Compound: O=C(O)c1ccccc1C(=O)Nc1ccc(Oc2cccc3ccccc23)cc1
- EC50 [8]: 6.38 µM (active)
- EC50 [9]: 10.4 µM (active)
- EC50 [10]: 12.7 µM (active)
- AC50 (A-375 [11]): > 35 µM (active)
- AC50 [12]: 18.8 µM (active)
- AC50 (A-375 [13]): > 35 µM (active)

Compound: O=c1[nH]c(Nc2nc3ccccc3o2)nc2c1CCCC2
- IC50 [14]: 5.27 µM (active)
- IC50 [15]: > 32 µM (inactive)
- EC50 [16]: > 32 µM (inactive)
- EC50 (Mu-type opioid receptor): > 32 µM (inactive)
- AC50 [17]: 16.8 µM (active)
- EC50 (Beta-galactosidase): > 31.5 µM (inactive)
- IC50 [18]: > 32 µM
